From ChEMBL document CHEMBL2069259, “Preclinical strategy to reduce clinical hepatotoxicity using in vitro bioactivation data for >200 compounds” (Chem Res Toxicol, 2012)

Legend:
Liver microsomes [1] = experiment: Metabolic stability in human liver microsomes assessed as GSH adduct formation at 100 uM after 90 mins by HPLC-MS analysis; details: 1.5 h
Liver microsomes [2] = experiment: Metabolic stability in human liver microsomes assessed as high signal/noise ratio (S/N of >100) by measuring GSH adduct formation at 100 uM after 90 mins by HPLC-MS analysis; details: 1.5 h

| Compound | Stability (Liver microsomes [1]) | Stability (Liver microsomes [2]) |
| --- | --- | --- |
| CCOC(=O)C1(c2ccccc2)CCN(C)CC1 [MEPERIDINE] | Stable |  |
| CCc1nn(CCCN2CCN(c3cccc(Cl)c3)CC2)c(=O)n1CCOc1ccccc1 [NEFAZODONE] | Stable |  |
| C[C@](N)(Cc1ccc(O)cc1)C(=O)O [METYROSINE] | Stable |  |
| CC(C)Cc1ccc(C(C)C(=O)O)cc1 (stereo not given) [IBUPROFEN] | Stable |  |
| CC(=O)[C@@]1(O)CC[C@H]2[C@@H]3C=C(Cl)C4=CC(=O)[C@@H]5C[C@@H]5[C@]4(C)[C@H]3CC[C@@]21C [CYPROTERONE] |  | Unstable |
| Oc1ncnc2[nH]ncc12 [ALLOPURINOL] | Stable |  |
| Cn1c(=O)c2c(ncn2C)n(C)c1=O [CAFFEINE] | Stable |  |
| CO[C@H](C(=O)[C@@H](O)[C@@H](C)O)[C@@H]1Cc2cc3cc(O[C@H]4C[C@@H](O[C@H]5C[C@@H](O)[C@H](O)[C@@H](C)O5)[C@H](O)[C@@H](C)O4)c(C)c(O)c3c(O)c2C(=O)[C@H]1O[C@H]1C[C@@H](O[C@H]2C[C@@H](O[C@H]3C[C@](C)(O)[C@H](O)[C@@H](C)O3)[C@@H](O)[C@@H](C)O2)[C@H](O)[C@@H](C)O1 [PLICAMYCIN] | Stable |  |
| CC(C)NCC(O)c1ccc(NS(C)(=O)=O)cc1 (stereo not given) [SOTALOL] | Stable |  |
| OC(Cn1cncn1)(Cn1cncn1)c1ccc(F)cc1F [FLUCONAZOLE] | Stable |  |
| CC(CCc1ccccc1)NCC(O)c1ccc(O)c(C(N)=O)c1 (stereo not given) [LABETALOL] | Stable |  |
| C[C@H]1O[C@@H](O[C@H]2[C@@H](O)C[C@H](O[C@H]3[C@@H](O)C[C@H](O[C@H]4CC[C@@]5(C)[C@H](CC[C@@H]6[C@@H]5C[C@@H](O)[C@]5(C)[C@@H](C7=CC(=O)OC7)CC[C@]65O)C4)O[C@@H]3C)O[C@@H]2C)C[C@H](O)[C@@H]1O [DIGOXIN] | Stable |  |
| CCOC(=O)C(C)(C)Oc1ccc(Cl)cc1 [CLOFIBRATE] | Stable |  |
| CN1CC[C@]23c4c5ccc(O)c4O[C@H]2C(=O)CC[C@@]3(O)[C@H]1C5 [OXYMORPHONE] | Stable |  |
| NC(=O)c1cnccn1 [PYRAZINAMIDE] | Stable |  |
| CO[C@H]1/C=C/O[C@@]2(C)Oc3c(C)c(O)c4c(O)c(c(/C=N/N5CCN(C)CC5)c(O)c4c3C2=O)NC(=O)/C(C)=C\C=C\[C@H](C)[C@H](O)[C@@H](C)[C@@H](O)[C@@H](C)[C@H](OC(C)=O)[C@@H]1C [RIFAMPIN] |  | Unstable |
| C=C[C@H]1C[N@@]2CC[C@H]1C[C@@H]2[C@@H](O)c1ccnc2ccc(OC)cc12 [QUINIDINE] |  | Unstable |
| C#CCN(C)[C@H](C)Cc1ccccc1 [SELEGILINE] |  | Unstable |
| CN1CC[C@]23c4c5ccc(O)c4O[C@H]2C(=O)CC[C@H]3[C@H]1C5 [HYDROMORPHONE] | Stable |  |
| C[C@]12CC[C@H]3[C@@H](CCC4=CC(=O)CC[C@@]43C)[C@@H]1CC[C@@H]2O [TESTOSTERONE] | Stable |  |
| CCNC(=O)[C@@H]1CCCN1C(=O)[C@H](CCCNC(=N)N)NC(=O)[C@H](CC(C)C)NC(=O)[C@@H](CC(C)C)NC(=O)[C@H](Cc1ccc(O)cc1)NC(=O)[C@H](CO)NC(=O)[C@H](Cc1c[nH]c2ccccc12)NC(=O)[C@H](Cc1c[nH]cn1)NC(=O)[C@@H]1CCC(=O)N1 [LEUPROLIDE] | Stable |  |
| CN(Cc1cnc2nc(N)nc(N)c2n1)c1ccc(C(=O)N[C@@H](CCC(=O)O)C(=O)O)cc1 [METHOTREXATE] | Stable |  |
| CC(C)(C)NC(=O)[C@H]1CC[C@H]2[C@@H]3CC[C@H]4NC(=O)C=C[C@]4(C)[C@H]3CC[C@]12C [FINASTERIDE] | Stable |  |
| CCCCC1C(=O)N(c2ccccc2)N(c2ccccc2)C1=O [PHENYLBUTAZONE] |  | Unstable |
| Nc1ccn([C@@H]2O[C@H](CO)[C@@H](O)[C@@H]2O)c(=O)n1 [CYTARABINE] | Stable |  |

| Compound | Stability (Liver microsomes [1]) | Stability (Liver microsomes [2]) |
| --- | --- | --- |
| O=c1[nH]cnc2c1ncn2[C@H]1CC[C@@H](CO)O1 [DIDANOSINE] | Stable |  |
| GENTAMICIN | Stable |  |
| NCCC(O)(P(=O)(O)O)P(=O)(O)O [PAMIDRONIC ACID] | Stable |  |
| CN[C@@H](C)Cc1ccccc1 [METHAMPHETAMINE] | Stable |  |
| CC[C@H]1OC(=O)[C@H](C)[C@@H](O[C@H]2C[C@@](C)(OC)[C@@H](O)[C@H](C)O2)[C@H](C)[C@@H](O[C@@H]2O[C@H](C)C[C@H](N(C)C)[C@H]2O)[C@](C)(O)C[C@@H](C)C(=O)[C@H](C)[C@@H](O)[C@]1(C)O [ERYTHROMYCIN] | Stable |  |
| Nc1nnc(-c2cccc(Cl)c2Cl)c(N)n1 [LAMOTRIGINE] | Stable |  |
| CC(O)(P(=O)(O)O)P(=O)(O)O [ETIDRONIC ACID] | Stable |  |
| C[C@@H]1C[C@H]2[C@@H]3CCC4=CC(=O)C=C[C@]4(C)[C@@]3(F)[C@@H](O)C[C@]2(C)[C@@]1(O)C(=O)CO [DEXAMETHASONE] | Stable |  |
| COc1cc2nc(N3CCN(C(=O)C4CCCO4)CC3)nc(N)c2cc1OC (stereo not given) [TERAZOSIN] | Stable |  |
| O=c1[nH]c(=O)n([C@H]2C[C@H](O)[C@@H](CO)O2)cc1F [FLOXURIDINE] | Stable |  |
| Cc1cccc(Nc2ccncc2S(=O)(=O)NC(=O)NC(C)C)c1 [TORSEMIDE] | Stable |  |
| O=C1CN(/N=C/c2ccc(-c3ccc([N+](=O)[O-])cc3)o2)C(O)=N1 [DANTROLENE] | Stable |  |
| COc1cc(N)c(Cl)cc1C(=O)NC1CCN(CCCOc2ccc(F)cc2)CC1OC (stereo not given) [CISAPRIDE] | Stable |  |
| CCN(CC)Cc1cc(Nc2ccnc3cc(Cl)ccc23)ccc1O.Cl | Unstable |  |
| C[C@H]1C[C@H]2[C@@H]3CCC4=CC(=O)C=C[C@]4(C)[C@@]3(Cl)[C@@H](O)C[C@]2(C)[C@@]1(O)C(=O)CO [BECLOMETHASONE] | Stable |  |
| CC(=O)[C@H]1CC[C@H]2[C@@H]3CCC4=CC(=O)CC[C@]4(C)[C@H]3CC[C@]12C [PROGESTERONE] | Stable |  |
| COc1ccc2c3c1O[C@H]1C(=O)CC[C@H]4[C@@H](C2)N(C)CC[C@]314 [HYDROCODONE] | Stable |  |
| CCN1CCCC1CNC(=O)c1cc(S(N)(=O)=O)ccc1OC (stereo not given) [SULPIRIDE] | Stable |  |
| CCCCC[C@H](O)/C=C/[C@H]1[C@H](O)CC(=O)[C@@H]1CCCCCCC(=O)O [ALPROSTADIL] | Stable |  |
| CC1COc2c(N3CCN(C)CC3)c(F)cc3c(=O)c(C(=O)O)cn1c23 (stereo not given) [OFLOXACIN] | Stable |  |
| O=C1NC(=O)C(c2ccccc2)(c2ccccc2)N1 [PHENYTOIN] | Stable |  |
| CCC1(c2ccccc2)C(=O)NC(=O)NC1=O [PHENOBARBITAL] | Stable |  |
| Cc1ccccc1C(OCCN(C)C)c1ccccc1 (stereo not given) [ORPHENADRINE] | Stable |  |
| CC(C)(N)Cc1ccccc1 [PHENTERMINE] | Stable |  |
| CNCCCC12CCC(c3ccccc31)c1ccccc12 [MAPROTILINE] | Stable |  |

| Compound | Stability (Liver microsomes [1]) | Stability (Liver microsomes [2]) |
| --- | --- | --- |
| CC/C(=C(\c1ccccc1)c1ccc(OCCN(C)C)cc1)c1ccccc1 [TAMOXIFEN] | Stable |  |
| CCN1CCN(C(=O)N[C@@H](C(=O)N[C@@H]2C(=O)N3C(C(=O)O)=C(CSc4nnnn4C)CS[C@H]23)c2ccc(O)cc2)C(=O)C1=O [CEFOPERAZONE] | Stable |  |
| O=C(O)c1cc(=O)c2c(OCC(O)COc3cccc4oc(C(=O)O)cc(=O)c34)cccc2o1 [CROMOLYN] | Stable |  |
| CC1(C)NC(=O)N(c2ccc([N+](=O)[O-])c(C(F)(F)F)c2)C1=O [NILUTAMIDE] | Stable |  |
| CCCNC(=O)NS(=O)(=O)c1ccc(Cl)cc1 [CHLORPROPAMIDE] | Stable |  |
| CC[C@H]1OC(=O)[C@H](C)[C@@H](O[C@H]2C[C@@](C)(OC)[C@@H](O)[C@H](C)O2)[C@H](C)[C@@H](O[C@@H]2O[C@H](C)C[C@H](N(C)C)[C@H]2O)[C@](C)(O)C[C@@H](C)CN(C)[C@H](C)[C@@H](O)[C@]1(C)O [AZITHROMYCIN] | Stable |  |
| C[C@H](N)[C@H](O)c1cccc(O)c1 [METARAMINOL] | Stable |  |
| CC(C)(O/N=C(\C(=O)N[C@@H]1C(=O)N2C(C(=O)[O-])=C(C[n+]3ccccc3)CS[C@H]12)c1csc(N)n1)C(=O)O [CEFTAZIDIME] | Stable |  |
| C[C@]12C=CC(=O)C=C1CC[C@H]1[C@@H]3C[C@@H](O)[C@](O)(C(=O)CO)[C@@]3(C)C[C@H](O)[C@@]12F [TRIAMCINOLONE] | Stable |  |
| Cc1cc2c(s1)Nc1ccccc1N=C2N1CCN(C)CC1 [OLANZAPINE] | Stable |  |
| Nc1cc(N2CCCCC2)nc(N)[n+]1[O-] [MINOXIDIL] | Unstable |  |
| COc1ccc([C@@H]2Sc3ccccc3N(CCN(C)C)C(=O)[C@@H]2OC(C)=O)cc1 [DILTIAZEM] | Stable |  |
| NC(=O)OCC(COC(N)=O)c1ccccc1 [FELBAMATE] | Stable |  |
| O=P(O)(O)C(O)(Cc1cccnc1)P(=O)(O)O [RISEDRONIC ACID] | Stable |  |
| COc1ccc2c(c1)c(CC(=O)O)c(C)n2C(=O)c1ccc(Cl)cc1 [INDOMETHACIN] | Stable |  |
| CN(C)C(=O)Oc1cccc([N+](C)(C)C)c1.[Br-] [NEOSTIGMINE BROMIDE] | Stable |  |
| CC(C)C[C@H](N)C(=O)O [LEUCINE] | Stable |  |
| CCN(CC)CCCC(C)Nc1ccnc2cc(Cl)ccc12 (stereo not given) [CHLOROQUINE] | Stable |  |
| CCCC1O[C@@H]2C[C@H]3[C@@H]4CCC5=CC(=O)C=C[C@]5(C)[C@H]4[C@@H](O)C[C@]3(C)[C@]2(C(=O)CO)O1 (stereo not given in full) [BUDESONIDE] | Stable |  |
| Cc1cn([C@H]2C[C@H](N=[N+]=[N-])[C@@H](CO)O2)c(=O)[nH]c1=O [ZIDOVUDINE] | Stable |  |
| CN(C)CCCN1c2ccccc2Sc2ccc(Cl)cc21 [CHLORPROMAZINE] | Stable |  |
| CCN1CCC[C@H]1CNC(=O)c1c(OC)ccc(Br)c1OC [REMOXIPRIDE] | Stable |  |
| COc1ccccc1OCC(O)CO (stereo not given) [GUAIFENESIN] | Stable |  |
| NC(=O)C[S+]([O-])C(c1ccccc1)c1ccccc1 (stereo not given) [MODAFINIL] | Stable |  |
| OCCOCCN1CCN(C(c2ccccc2)c2ccc(Cl)cc2)CC1 (stereo not given) [HYDROXYZINE] | Stable |  |
